Test results published in patent US4389412A, “Substituted cyclopropanecarboxylic acid esters and pesticidal compositions containing the same as active ingredient” (priority 1979, dated 1983).
≈ marks a conversion by molar mass, not a printed value.

Tests used:
[1] = system: houseflies (Musca domestica); experiment: Mortality test with houseflies by topical application method; conditions: 24 h; for mortality at 0.001 mg: read-out: Pesticidal effect, housefly
[2] = system: green rice leafhoppers (Nephotettix cincticeps Uhler); experiment: Utility Example-2: spray on rice plants, green rice leafhoppers; type: in vivo; conditions: 7 ml/pot, 24 hours
Description: A 30% emulsifiable concentrate of each of the cis- and trans-isomers and a 50:50 mixture of the cis- and trans-isomers of Compound (1) and Compound (2) as prepared by the procedure described in Formulation Example-1 was diluted with water to a concentration of 80 ppm as active compound. Rice plants 4 weeks after sowing in pots (each pot 6 cm in diameter, 7 seedlings) were sprayed with the above solution at the rate of 7 ml/pot and, after drying in the air, each pot was covered with a wire-mesh cage. Then, 20 female adult green rice leafhoppers (Nephotettix cincticeps Uhler) were released into the cage. The caged pots were kept in a constant-temperature chamber at 25° C. […] In all groups, the mortality values were not less than 90%.

[3] = system: green rice leafhoppers (Nephotettix cincticeps); experiment: Utility Example-6: 0.5% dust on rice seedlings, green rice leafhoppers; type: in vivo; conditions: 1 kg per 10 ares, 24 hours, resistant to organophosphorus and carbamate pesticides
Description: A 0.5% dust preparation of each of the cis- and trans-isomers and a 50:50 mixture of the cis- and trans-isomers of Compound (1) and of Compound (2) as prepared by the procedure described in Formulation Example-4 was applied to rice seedlings by means of a bell-jar duster at the rate of 1 kg per 10 ares. Then, 30 green rice leafhoppers (Nephotettix cincticeps) resistant to organophosphorus and carbamate pesticides were released. […] In all cases, the mortality was not less than 90%.

carp and water flea = experiment: Fish toxicity ranking according to Japanese regulations; parameters: species or system Cyprinus carpio L; Daphnia pulex; conditions: from TLm for carp and water flea
In short: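 Ranking per Japanese agrochemical regulations from median tolerance limits: A = carp TLm (48 hrs.) >10 ppm and water flea TLm (3 hrs.) >0.5 ppm; B = carp 10-0.5 ppm, or carp >10 ppm with water flea <0.5 ppm; C = carp TLm (48 hrs.) <0.5 ppm.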

[4] = system: brown planthoppers (Nilaparvata lugens); experiment: Utility Example-7: 0.5% dust on rice seedlings, brown planthoppers; type: in vivo; conditions: 1 kg per 10 ares, 24 hours
Description: A 0.5% dust preparation of each of the cis- and trans-isomers and a 50:50 mixture of the cis- and trans-isomers of Compound (1) and of Compound (2) as prepared by the procedure described in Formulation Example-4 was applied to rice seedlings, on which 30 adult brown planthoppers (Nilaparvata lugens) were released, by means of a bell-jar duster at the rate of 1 kg per 10 ares. […] In all cases, the mortality was not less than 90%.

[5] = Fish toxicity test with killifish; type: in vivo, Orizias latipes; conditions: water, killifish, 25±1° C., read-out: TLm (48 hrs.)
In short: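 Test compound dispensed from acetone solution into water at set concentrations; ten aerated-water killifish (~0.25 g, ~2.5 cm) held at 25±1° C. Deaths scored after 48 hours; TLm (median tolerance limit, ppm) determined.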

[6] = system: two-spotted spider mites (Tetranychus urticae Koch); experiment: Mortality test with two-spotted spider mites by spray application method; type: in vivo; conditions: 48 h, 200 ppm spray, two days, read-out: Percent decrease of population (%)
Description: Mortality test with two-spotted spider mites (Tetranychus urticae Koch) by spray application method
To a 5% aqueous solution of acetone was added dropwise a small amount of Tween-20 (polyethylene sorbitan monolaurate) as a surfactant. […] From 30 to 50 adult two-spotted spider mites (Tetranychus urticae Koch) were released on the leaves of kidney-bean plants in the dicotyledonous stage in a pot 9 cm in diameter, followed by a spray application of the above solution. The pot was kept in a constant-temperature chamber at 26° C. and two days later the mites were examined for deaths. The percent decrease of population was then calculated.

[7] = Fish toxicity safety factor (TLm divided by maximum concentration in cover water); parameters: species or system carp; conditions: in vivo, TLm / maximum concentration in cover water at LC50 application (100 l per 10 ares, 5 cm depth)
In short: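 Calculated index: carp TLm (ppm) divided by the maximum compound concentration expected in paddy cover water. That concentration assumes 100 l of solution at the pest LC50 applied per 10 ares onto 5 cm deep cover water, all of it entering the water.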

SMILES	mortality at 0.5 µg/female [1]	mortality at 1 µg/female [1]	mortality at 80 ppm [2]	mortality [3]	Ranking (carp and water flea)	mortality [4]	LC50 at 48 h [5]	mortality at 200 ppm [6]	selectivity ratio [7]	mortality at 0.001 mg [1]
CC1(C)[C@@H](C=C(Cl)Cl)[C@@H]1C(=O)OCc1cccc(Oc2ccc(Cl)cc2)c1 (relative stereo) [Compound (1) trans-, 3-(4-chlorophenoxy)benzyl trans-2,2-dimethyl-3-(2,2-dichlorovinyl)cyclopropanecarboxylate]	100%	100%	≥ 90%	not less than 90%	B (TLm (48 hrs.) value 10-0.5 ppm for carp; or TLm (48 hrs.) value >10 ppm for carp and TLm (3 hrs.) value <0.5 ppm for water flea, wherein appreciable toxicity to fishes is not observed by usual application but may be observed when applied to wide area at one time.)	not less than 90%	> 10 µg/mL	100%	3.5	
C#CC(OC(=O)[C@@H]1[C@H](C=C(Cl)Cl)C1(C)C)c1cccc(Oc2ccc(Cl)cc2)c1 (relative stereo) [Compound (2) cis-]	100%	100%	≥ 90%	not less than 90%	B (TLm (48 hrs.) value 10-0.5 ppm for carp; or TLm (48 hrs.) value >10 ppm for carp and TLm (3 hrs.) value <0.5 ppm for water flea, wherein appreciable toxicity to fishes is not observed by usual application but may be observed when applied to wide area at one time.)	not less than 90%	> 10 µg/mL	100%	2.1	
C#CC(OC(=O)[C@@H]1[C@@H](C=C(Cl)Cl)C1(C)C)c1cccc(Oc2ccc(Cl)cc2)c1 (relative stereo) [Compound (2) trans-]	100%	100%	≥ 90%	not less than 90%	A (TLm (48 hrs.) value >10 ppm for carp and TLm (3 hrs.) value >0.5 ppm for water flea, wherein toxicity to fishes is not observed by usual application.)	not less than 90%	> 10 µg/mL	100%	> 28	
C#CC(OC(=O)C1C(C=C(Cl)Cl)C1(C)C)c1cccc(Oc2ccc(Cl)cc2)c1 (stereo not drawn) [Compound (2) cis-/trans- = 50:50, 3-(4-chlorophenoxy)-α-ethynylbenzyl 2,2-dimethyl-3-(2,2-dichlorovinyl)cyclopropanecarboxylate]	100%	100%	≥ 90%	not less than 90%	B (TLm (48 hrs.) value 10-0.5 ppm for carp; or TLm (48 hrs.) value >10 ppm for carp and TLm (3 hrs.) value <0.5 ppm for water flea, wherein appreciable toxicity to fishes is not observed by usual application but may be observed when applied to wide area at one time.)	not less than 90%	> 10 µg/mL	100%		100%
CC1(C)C(C=C(Cl)Cl)C1C(=O)OCc1cccc(Oc2ccccc2)c1 (stereo not shown) [Compound (B), Permethrin]	100%	100%			C (TLm (48 hrs.) value <0.5 ppm for carp, wherein toxicity to fishes is so strongly observed by usual application that both the application method and application area are strictly restricted.)		0.04 µg/mL (≈ 0.102 µM)	100%	0.01	100%
